Assay results: patent US20260256792A1, “TREATMENT OF CHRONIC SPONTANEOUS URTICARIA BY ADMINISTERING (R)-2-[3-[4-AMINO-3-(2-FLUORO-4-PHENOXY-PHENYL)PYRAZOLO[3,4-D]PYRIMIDIN-1-YL]PIPERIDINE-1-CARBONYL]-4-METHYL-4-[4-(OXETAN-3-YL)PIPERAZIN-1-YL]PENT-2-ENENITRILE” (priority 2023, published 2026)

Tested on: moderate-to-severe chronic spontaneous urticaria (CSU)
Assay: Phase 2 CSU study: itch severity score over 7 days (ISS7)
Format: in vivo, human
Settings: ITT
Text: The study comprises a 12 week, randomized, double-blind, placebo-controlled, multi-center, dose-ranging efficacy and safety phase, followed by a 40 week open label extension (OLE) phase (see FIG. 1). The study consists of three phases and an optional OLE phase. […] Clinically, CSU is characterized by the spontaneous and recurrent appearance of pruritic hives. The proposed primary endpoints were the UAS7 at Week 12 in EU and EU reference countries and the ISS7 in the US. Regardless of where a participant was from, all assessments were the same. The UAS7 score is a composite score containing both the HSS7 and the ISS7. This allowed a global assessment of the two key components of urticaria: hives and itch. […] The UAS is a validated PRO measure. […] The daily UAS scores range from 0 to 6 point/day. […] Patients were to complete the UAS using the e-diary. […] The following secondary endpoints were to be analyzed using the same approach as for the primary endpoint: • Change from baseline in UAS7 at Week 4 • Change from baseline in UAS7 at Week 12 (for US and US reference countries) • Change from baseline in ISS7 at Week 12 (except US and US reference countries) • Change from baseline in HSS7 at Week 12

Structure (SMILES): CC(C)(C=C(C#N)C(=O)N1CCC[C@@H](n2nc(-c3ccc(Oc4ccccc4)cc3F)c3c(N)ncnc32)C1)N1CCN(C2COC2)CC1 [rilzabrutinib, (R)-2-[3-[4-amino-3-(2-fluoro-4-phenoxy-phenyl)pyrazolo[3,4-d]pyrimidin-1-yl]piperidine-1-carbonyl]-4-methyl-4-[4-(oxetan-3-yl)piperazin-1-yl]pent-2-enenitrile]
- ISS7 Change difference for rilzabrutinib vs. placebo LS Mean (95% CI) (400 mg BID, Week 2): −2.27
- ISS7 Change from baseline LS Mean (SE) (400 mg BID, Week 2): −5.68 (0.80)
- ISS7 Post-baseline Mean (SD) (400 mg BID, Week 2): 10.40 (5.75)
- ISS7 % Change difference for rilzabrutinib vs. placebo LS Mean (95% CI) (400 mg BID, Week 3): −18.44%
- ISS7 % Change from baseline LS Mean (SE) (400 mg BID, Week 3): −40.88 (5.26) %
- ISS7 Change difference for rilzabrutinib vs. placebo LS Mean (95% CI) (400 mg BID, Week 3): −2.60
- ISS7 Change from baseline LS Mean (SE) (400 mg BID, Week 3): −6.68 (0.84)
- ISS7 Post-baseline Mean (SD) (400 mg BID, Week 3): 9.21 (6.17)
- ISS7 % Change difference for rilzabrutinib vs. placebo LS Mean (95% CI) (400 mg BID, Week 4): −18.54%
- ISS7 % Change from baseline LS Mean (SE) (400 mg BID, Week 4): −44.30 (5.62) %
- ISS7 Change difference for rilzabrutinib vs. placebo LS Mean (95% CI) (400 mg BID, Week 4): −2.62
- ISS7 Change from baseline LS Mean (SE) (400 mg BID, Week 4): −7.24 (0.89)
- ISS7 Post-baseline Mean (SD) (400 mg BID, Week 4): 8.12 (6.28)
- ISS7 % Change difference for rilzabrutinib vs. placebo LS Mean (95% CI) (400 mg BID, Week 5): −9.84%
- ISS7 % Change from baseline LS Mean (SE) (400 mg BID, Week 5): -43.1%
- ISS7 Change difference for rilzabrutinib vs. placebo LS Mean (95% CI) (400 mg BID, Week 5): −1.32
- ISS7 Change from baseline LS Mean (SE) (400 mg BID, Week 5): −6.89 (0.88)
- ISS7 Post-baseline Mean (SD) (400 mg BID, Week 5): 8.53 (6.95)
- ISS7 % Change difference for rilzabrutinib vs. placebo LS Mean (95% CI) (400 mg BID, Week 6): −13.75%
- ISS7 % Change from baseline LS Mean (SE) (400 mg BID, Week 6): −42.18 (5.84) %
- ISS7 Change difference for rilzabrutinib vs. placebo LS Mean (95% CI) (400 mg BID, Week 6): −1.99
- ISS7 Change from baseline LS Mean (SE) (400 mg BID, Week 6): −6.87 (0.93)
- ISS7 Post-baseline Mean (SD) (400 mg BID, Week 6): 8.62 (6.58)
- ISS7 % Change difference for rilzabrutinib vs. placebo LS Mean (95% CI) (400 mg BID, Week 7): −18.93%
- ISS7 % Change from baseline LS Mean (SE) (400 mg BID, Week 7): −47.79 (5.68) %
- ISS7 Change difference for rilzabrutinib vs. placebo LS Mean (95% CI) (400 mg BID, Week 7): −2.77
- ISS7 Change from baseline LS Mean (SE) (400 mg BID, Week 7): −7.77 (0.91)
- ISS7 Post-baseline Mean (SD) (400 mg BID, Week 7): 8.03 (6.39)
- ISS7 % Change difference for rilzabrutinib vs. placebo LS Mean (95% CI) (400 mg BID, Week 8): −20.00%
- ISS7 % Change from baseline LS Mean (SE) (400 mg BID, Week 8): −52.80 (5.92) %
- ISS7 Change difference for rilzabrutinib vs. placebo LS Mean (95% CI) (400 mg BID, Week 8): −2.86
- ISS7 Change from baseline LS Mean (SE) (400 mg BID, Week 8): −8.47 (0.93)
- ISS7 Post-baseline Mean (SD) (400 mg BID, Week 8): 7.18 (6.69)
- ISS7 % Change difference for rilzabrutinib vs. placebo LS Mean (95% CI) (400 mg BID, Week 9): −20.94%
- ISS7 % Change from baseline LS Mean (SE) (400 mg BID, Week 9): −51.80 (5.94) %
- ISS7 Change difference for rilzabrutinib vs. placebo LS Mean (95% CI) (400 mg BID, Week 9): −2.77
- ISS7 Change from baseline LS Mean (SE) (400 mg BID, Week 9): −8.27 (0.96)
- ISS7 Post-baseline Mean (SD) (400 mg BID, Week 9): 7.44 (7.20)
- ISS7 % Change difference for rilzabrutinib vs. placebo LS Mean (95% CI) (400 mg BID, Week 10): −10.95%
- ISS7 % Change from baseline LS Mean (SE) (400 mg BID, Week 10): −48.75 (6.31) %
- ISS7 Change difference for rilzabrutinib vs. placebo LS Mean (95% CI) (400 mg BID, Week 10): −1.72
- ISS7 Change from baseline LS Mean (SE) (400 mg BID, Week 10): −8.01 (1.01)
- ISS7 Post-baseline Mean (SD) (400 mg BID, Week 10): 8.06 (7.29)
- ISS7 % Change difference for rilzabrutinib vs. placebo LS Mean (95% CI) (400 mg BID, Week 11): −15.82%
- ISS7 % Change from baseline LS Mean (SE) (400 mg BID, Week 11): −49.45 (6.23) %
- ISS7 Change difference for rilzabrutinib vs. placebo LS Mean (95% CI) (400 mg BID, Week 11): −2.07
- ISS7 Change from baseline LS Mean (SE) (400 mg BID, Week 11): −7.93 (0.99)
- ISS7 Post-baseline Mean (SD) (400 mg BID, Week 11): 7.76 (7.01)
- ISS7 % Change difference for rilzabrutinib vs. placebo LS Mean (95% CI) (400 mg BID, Week 12): −13.69%
- ISS7 % Change from baseline LS Mean (SE) (400 mg BID, Week 12): −50.27 (6.54) %
- ISS7 Change difference for rilzabrutinib vs. placebo LS Mean (95% CI) (400 mg BID, Week 12): −1.75
- ISS7 Change from baseline LS Mean (SE) (400 mg BID, Week 12): −8.06 (1.02)
- ISS7 Post-baseline Mean (SD) (400 mg BID, Week 12): 7.61 (7.18)
- ISS7 % Change difference for rilzabrutinib vs. placebo LS Mean (95% CI) (400 mg QPM, Week 1): −8.87%
- ISS7 % Change from baseline LS Mean (SE) (400 mg QPM, Week 1): −19.33 (5.35) %
- ISS7 Change difference for rilzabrutinib vs. placebo LS Mean (95% CI) (400 mg QPM, Week 1): −1.47
- ISS7 Change from baseline LS Mean (SE) (400 mg QPM, Week 1): −3.47 (0.79)
- ISS7 Post-baseline Mean (SD) (400 mg QPM, Week 1): 13.08 (4.46)
- ISS7 % Change difference for rilzabrutinib vs. placebo LS Mean (95% CI) (400 mg QPM, Week 2): −5.64%
- ISS7 % Change from baseline LS Mean (SE) (400 mg QPM, Week 2): −25.13 (5.32) %
- ISS7 Change difference for rilzabrutinib vs. placebo LS Mean (95% CI) (400 mg QPM, Week 2): −0.86
- ISS7 Change from baseline LS Mean (SE) (400 mg QPM, Week 2): −4.27 (0.81)
- ISS7 Post-baseline Mean (SD) (400 mg QPM, Week 2): 12.44 (4.70)
- ISS7 % Change difference for rilzabrutinib vs. placebo LS Mean (95% CI) (400 mg QPM, Week 3): −7.34%
- ISS7 % Change from baseline LS Mean (SE) (400 mg QPM, Week 3): −29.78 (5.33) %
- ISS7 Change difference for rilzabrutinib vs. placebo LS Mean (95% CI) (400 mg QPM, Week 3): −0.97
- ISS7 Change from baseline LS Mean (SE) (400 mg QPM, Week 3): −5.06 (0.85)
- ISS7 % Change difference for rilzabrutinib vs. placebo LS Mean (95% CI) (400 mg QPM, Week 4): −5.09%
- ISS7 % Change from baseline LS Mean (SE) (400 mg QPM, Week 4): −30.86 (5.64) %
- ISS7 Change difference for rilzabrutinib vs. placebo LS Mean (95% CI) (400 mg QPM, Week 4): −0.67
- ISS7 Change from baseline LS Mean (SE) (400 mg QPM, Week 4): −5.29 (0.90)
- ISS7 Post-baseline Mean (SD) (400 mg QPM, Week 4): 11.30 (4.76)
- ISS7 % Change difference for rilzabrutinib vs. placebo LS Mean (95% CI) (400 mg QPM, Week 5): 0.86%
- ISS7 % Change from baseline LS Mean (SE) (400 mg QPM, Week 5): −32.42 (5.42) %
- ISS7 Change difference for rilzabrutinib vs. placebo LS Mean (95% CI) (400 mg QPM, Week 5): 0.08
- ISS7 Change from baseline LS Mean (SE) (400 mg QPM, Week 5): −5.48 (0.88)
- ISS7 Post-baseline Mean (SD) (400 mg QPM, Week 5): 11.00 (4.61)
- ISS7 % Change difference for rilzabrutinib vs. placebo LS Mean (95% CI) (400 mg QPM, Week 6): −8.64%
- ISS7 % Change from baseline LS Mean (SE) (400 mg QPM, Week 6): −37.07 (5.96) %
- ISS7 Change difference for rilzabrutinib vs. placebo LS Mean (95% CI) (400 mg QPM, Week 6): −1.39
- ISS7 Change from baseline LS Mean (SE) (400 mg QPM, Week 6): −6.28 (0.95)
- ISS7 Post-baseline Mean (SD) (400 mg QPM, Week 6): 10.23 (5.19)
- ISS7 % Change difference for rilzabrutinib vs. placebo LS Mean (95% CI) (400 mg QPM, Week 7): −9.66%
- ISS7 % Change from baseline LS Mean (SE) (400 mg QPM, Week 7): −38.52 (5.84) %
- ISS7 Change difference for rilzabrutinib vs. placebo LS Mean (95% CI) (400 mg QPM, Week 7): −1.37
- ISS7 Change from baseline LS Mean (SE) (400 mg QPM, Week 7): −6.37 (0.93)
- ISS7 Post-baseline Mean (SD) (400 mg QPM, Week 7): 10.60 (5.27)
- ISS7 % Change difference for rilzabrutinib vs. placebo LS Mean (95% CI) (400 mg QPM, Week 8): −5.60%
- ISS7 % Change from baseline LS Mean (SE) (400 mg QPM, Week 8): −38.39 (6.03) %
- ISS7 Change difference for rilzabrutinib vs. placebo LS Mean (95% CI) (400 mg QPM, Week 8): −0.61
- ISS7 Change from baseline LS Mean (SE) (400 mg QPM, Week 8): −6.22 (0.96)
